In the supplement of paper PMC10307832:

What was measured:
Test in all cases: relative viability (nuclei count vs DMSO), 5 days (fraction); higher = more cells survive
RO-3306 + Alpelisib = compound: C1=CC2=C(C=CC(=C2)C=C3C(=O)NC(=NCC4=CC=CS4)S3)N=C1 [RO-3306] + Cc1nc(NC(=O)N2CCC[C@H]2C(N)=O)sc1-c1ccnc(C(C)(C)C(F)(F)F)c1 [Alpelisib] (partner 2 µM)
In short: (§1)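 Values are medians from duplicate plates. Each reflects relative viability, defined as the nuclei count of treated wells over that of vehicle wells. Lung cancer cell lines in 1536-well plates were pin-tool dosed one day after seeding with one drug alone or with a fixed anchor-drug dose plus five library-drug doses (not always all listed) in √10 steps, then fixed, stained and imaged at 4× after 5 days.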

RO-3306 + Palbociclib = compound: C1=CC2=C(C=CC(=C2)C=C3C(=O)NC(=NCC4=CC=CS4)S3)N=C1 [RO-3306] + CC(=O)c1c(C)c2cnc(Nc3ccc(N4CCNCC4)cn3)nc2n(C2CCCC2)c1=O [Palbociclib] (partner 0.5 µM)
In short: as §1

[1] = compound: O=S(=O)(c1ccccc1)N(CC(F)(F)F)c1ccc(C(O)(C(F)(F)F)C(F)(F)F)cc1 + Cc1nc(NC(=O)N2CCC[C@H]2C(N)=O)sc1-c1ccnc(C(C)(C)C(F)(F)F)c1 [Alpelisib] (partner 2 µM)
In short: as §1

[2] = compound: O=S(=O)(c1ccccc1)N(CC(F)(F)F)c1ccc(C(O)(C(F)(F)F)C(F)(F)F)cc1 + CS(=O)(=O)N1CCN(Cc2cc3nc(-c4cccc5[nH]ncc45)nc(N4CCOCC4)c3s2)CC1 [Pictilisib] (partner 1 µM)
In short: as §1

[3] = compound: O=S(=O)(c1ccccc1)N(CC(F)(F)F)c1ccc(C(O)(C(F)(F)F)C(F)(F)F)cc1 + CC(=O)Nc1cccc(-n2c(=O)n(C3CC3)c(=O)c3c(Nc4ccc(I)cc4F)n(C)c(=O)c(C)c32)c1 [Trametinib] (partner 0.02 µM)
In short: as §1

Cell Line: UMC-11
- relative viability (RO-3306 + Alpelisib; first compound 0.01 µM): 1.03
- relative viability (RO-3306 + Alpelisib; first compound 0.03162 µM): 0.753
- relative viability (RO-3306 + Alpelisib; first compound 0.1 µM): 0.948
- relative viability (RO-3306 + Alpelisib; first compound 0.3162 µM): 1.18
- relative viability (RO-3306 + Alpelisib; first compound 1 µM): 1.12
- relative viability (RO-3306 + Palbociclib; first compound 0.01 µM): 0.305
- relative viability (RO-3306 + Palbociclib; first compound 0.03162 µM): 0.319
- relative viability (RO-3306 + Palbociclib; first compound 0.1 µM): 0.297
- relative viability (RO-3306 + Palbociclib; first compound 0.3162 µM): 0.309
- relative viability (RO-3306 + Palbociclib; first compound 1 µM): 0.277
- relative viability ([1]; first compound 0.8 µM): 1.24
- relative viability ([1]; first compound 2.53 µM): 0.98
- relative viability ([1]; first compound 8 µM): 1.25
- relative viability ([2]; first compound 0.8 µM): 0.908
- relative viability ([2]; first compound 2.53 µM): 0.867
- relative viability ([2]; first compound 8 µM): 1.14
- relative viability ([3]; first compound 0.8 µM): 0.796
- relative viability ([3]; first compound 2.53 µM): 0.711
- relative viability ([3]; first compound 8 µM): 0.862
